ChEMBL document CHEMBL3286375, “Total synthesis and antiplasmodial activity of pohlianin C and analogues” (Bioorg Med Chem Lett, 2014)
Non-standard residues stand in square brackets, D forms with d. Residues, ends and D or L forms follow the SMILES beside them. 3Amb = NCc1cccc(C(=O)O)c1; 4Abz = Nc1ccc(C(=O)O)cc1; Ava = NCCCCC(=O)O

Assays:
[1] = system: Plasmodium falciparum; assay: Antiplasmodial activity against Plasmodium falciparum assessed as parasite growth inhibition; type: functional, organism-based
[2] = system: Plasmodium falciparum; assay: Antiplasmodial activity against asexual blood stage chloroquine-sensitive Plasmodium falciparum 3D7 assessed as parasite growth inhibition at 40 uM by image-based assay relative to control; type: functional
[3] = system: Plasmodium falciparum; assay: Antiplasmodial activity against asexual blood stage chloroquine-sensitive Plasmodium falciparum 3D7 assessed as parasite growth inhibition by image-based assay; type: functional, organism-based
[4] = system: Plasmodium falciparum; assay: Antiplasmodial activity against asexual blood stage chloroquine-sensitive Plasmodium falciparum 3D7 assessed as parasite growth inhibition at 2 uM by image-based assay relative to control; type: functional

| SMILES | IC50 [1] [µM] | inhibition at 40 µM [2] [%] | IC50 [3] [µM] | inhibition at 2 µM [4] [%] |
| --- | --- | --- | --- | --- |
| CC[C@H](C)[C@@H]1NC(=O)[C@H]([C@@H](C)O)NC(=O)CNC(=O)CNC(=O)[C@H](Cc2ccccc2)NC(=O)CNC(=O)[C@H](Cc2ccccc2)NC(=O)[C@H]([C@@H](C)CC)NC1=O (cyclo(FGFGGTII)) | 16 | 78 | 25 | – |
| CC(C)C[C@@H]1NC(=O)CNC(=O)[C@H](CC(C)C)NC(=O)[C@@H]2CCCN2C(=O)[C@H](Cc2ccc(O)cc2)NC(=O)[C@H](CC(C)C)NC(=O)[C@H](CC(C)C)NC1=O (cyclo(GLLLYPL)) | 25 | – | – | – |
| CC(C)C[C@@H]1NC(=O)[C@H](CC(C)C)NC(=O)[C@H](C(C)C)NC(=O)CNC(=O)[C@H](CC(C)C)NC(=O)[C@@H]2CCCN2C(=O)[C@H](Cc2ccc(O)cc2)NC1=O (cyclo(GVLLYPL)) | 57 | – | – | – |
| CC[C@H](C)[C@@H]1NC(=O)[C@H]([C@@H](C)O)NC(=O)c2cccc(c2)CNC(=O)[C@H](Cc2ccccc2)NC(=O)CNC(=O)[C@H](Cc2ccccc2)NC(=O)[C@H]([C@@H](C)CC)NC1=O (cyclo([3Amb]TIIFGF)) | – | 86 | 4 | – |
| CC[C@H](C)[C@@H]1NC(=O)[C@H]([C@@H](C)O)NC(=O)c2ccc(cc2)NC(=O)[C@H](Cc2ccccc2)NC(=O)CNC(=O)[C@H](Cc2ccccc2)NC(=O)[C@H]([C@@H](C)CC)NC1=O (cyclo([4Abz]TIIFGF)) | – | 12 | – | – |
| CC[C@H](C)[C@@H]1NC(=O)[C@H]([C@@H](C)O)NC(=O)CCCCNC(=O)[C@H](Cc2ccccc2)NC(=O)CNC(=O)[C@H](Cc2ccccc2)NC(=O)[C@H]([C@@H](C)CC)NC1=O (cyclo([Ava]TIIFGF)) | – | 87 | 23 | – |
| C[C@@H]1CC[C@H]2[C@@H](C)C(=O)O[C@@H]3O[C@@]4(C)CC[C@@H]1[C@]32OO4 [ARTEMISININ] | – | – | 0.013 | 100 |
